Experimental data reported in patent US20030162662A1, “2-Phenyl-2h-pyridazine-3-ones” (priority 2000, published 2003).

Tests used:
[1] = system: BIDPI (common blackjack); test: Greenhouse herbicidal action, postemergence treatment, BIDPI; type: in vivo
Description: (§1) The herbicidal action of the 2-phenylpyridazin-3-one compounds of the formula I could be shown by means of greenhouse experiments: […]
(§2) The cultivation containers used were plastic pots containing loamy sand with approximately 3.0% of humus as a substrate. The seeds of the test plants were sown separately according to species.
(§3) For the purpose of postemergence treatment, the test plants were first raised up to a growth height of 3 to 15 cm, depending on growth form, and then treated with the active compounds suspended or emulsified in water. For this, the test plants were either sown directly and raised in the same containers or they were first raised separately as seedlings and transplanted into the experimental containers a few days before the treatment. The application rate for the postemergence treatment was 31.2 or 15.6 g of a.S./ha.
(§4) The plants were kept species-specifically at temperatures from 10-25° C. or 20-35° C. The experimental period extended over 2 to 4 weeks. During this time, the plants were tended, and their reaction to the individual treatments was assessed.
(§5) Assessment was carried out on a scale from 0 to 100. 100 here means no emergence of the plants or complete destruction of at least the above-ground parts and 0 means no damage or normal course of growth.
(§6) The plants used in the greenhouse experiments were made up of the following species: […]

[2] = system: SETFA (Faber's foxtail); test: Greenhouse herbicidal action, postemergence treatment, SETFA; type: in vivo
Description: as §1, §2, §3, §4, §5, §6

| Compound | herbicidal action against BIDPI (scale 0 to 100; 100 = complete destruction, 0 = no damage) ([1]; application rate 15.6 g/ha) | herbicidal action against BIDPI (scale 0 to 100; 100 = complete destruction, 0 = no damage) ([1]; application rate 31.2 g/ha) | herbicidal action against SETFA (scale 0 to 100; 100 = complete destruction, 0 = no damage) ([2]; application rate 15.6 g/ha) | herbicidal action against SETFA (scale 0 to 100; 100 = complete destruction, 0 = no damage) ([2]; application rate 31.2 g/ha) | melting point |
| --- | --- | --- | --- | --- | --- |
| CCOC(=O)C=Cc1cc(-n2ncc(C(F)(F)F)c(C)c2=O)c(F)cc1Cl [Example I-658 of WO 97/07104, reference compound] | 30% | 30% | 80% | – | – |
| CCOC(=O)C(Cl)=Cc1cc(-n2ncc(C(F)(F)F)c(C)c2=O)c(F)cc1Cl [Ia.3, 2-[4-Chloro-2-fluoro-5-(2-ethoxycarbonyl-2-chloroethen-1-yl)-phenyl]-4-methyl-5-trifluoromethyl-2H-pyridazin-3-one] | 80% | 100% | 100% | 100% | – |
| COC(=O)/C(Cl)=C/c1cc(-n2ncc(C(F)(F)F)c(C)c2=O)c(F)cc1Cl [Ib.2] | – | – | – | – | 121 to 123 °C |
| Cc1c(C(F)(F)F)cnn(-c2cc(/C=C(\Cl)C(N)=O)c(Cl)cc2F)c1=O [Ib.30] | – | – | – | – | 128 to 129 °C |
